Where two headings read alike, the source gives them in different places.
What was measured:
Format in all cases: cell-based
[1] = tested on: human hepatocellular carcinoma cell line SNU398; assay: Caspase cascade activation (Ac-DEVD-R110 fluorogenic substrate) in SNU398 cells
Description: (§1) Human breast cancer cell line T-47D, human hepatocellular carcinoma cell line SNU398 and human colon carcinoma cell line HCT116 were grown according to media component mixtures designated by American Type Culture Collection+10% FCS (Invitrogen Corporation), in a 5% CO2-95% humidity incubator at 37° C. T-47D and H1299 cells were maintained at a cell density between 50 and 80% confluency at a cell density of 0.1 to 0.6×10^6 cells/mL. Cells were harvested at 600×g and resuspended at 0.65×10^6 cells/mL into appropriate media+10% FCS. An aliquot of 22.5 μL of cells was added to a well of a 384-well microtiter plate containing 2.5 μL of a 10% DMSO in RPMI-1640 media solution containing 0.16 to 100 μM of 5,7-dihydro-N-(3,5-dimethoxyphenyl)-2-(methylthio)furo[3,4-d]pyrimidin-4-amine or other test compound (0.016 to 10 μM final). An aliquot of 22.5 μL of cells was added to a well of a 384-well microtiter plate containing 2.5 μL of a 10% DMSO in RPMI-1640 media solution without test compound as the control sample. The samples were mixed by agitation and then incubated at 37° C. for 24 or 48 h in a 5% CO2-95% humidity incubator. After incubation, the samples were removed from the incubator and 25 μL of a solution containing 14 μM of N-(Ac-DEVD)-N′-ethoxycarbonyl-R110 (SEQ ID No.:1) fluorogenic substrate (Cytovia, Inc.; WO99/18856), 20% sucrose (Sigma), 20 mM DTT (Sigma), 200 mM NaCl (Sigma), 40 mM Na PIPES buffer pH 7.2 (Sigma), and 500 µg/mL lysolecithin (Calbiochem) was added. The samples were mixed by agitation and incubated at room temperature. Using a fluorescent plate reader (Model SPECTRAfluor Plus, Tecan), an initial reading (T=0) was made approximately 1-2 min after addition of the substrate solution, employing excitation at 485 nm and emission at 530 nm, to determine the background fluorescence of the control sample. After the 3 h incubation, the samples were read for fluorescence as above (T=3 h).
(§2) The Relative Fluorescence Unit values (RFU) were used to calculate the sample readings as follows: RFU(T=3h)−Control RFU(T=0)=Net RFU(T=3h)
(§3) The activity of caspase cascade activation was determined by the ratio of the net RFU value for 5,7-dihydro-N-(3,5-dimethoxyphenyl)-2-(methylthio)furo[3,4-d]pyrimidin-4-amino or other test compound to that of control samples. The EC50 (nM) was determined by a sigmoidal dose-response calculation (Prism 3.0, GraphPad Software Inc.).

HCT116 cells = assay: Inhibition of cell proliferation (GI50, CellTiter-Glo) in HCT116 cells; details: Homo sapiens, HCT-116, 48 h, read-out: GI50 in Cancer Cells HCT116
Description: (§4) T-47D, MX-1, SNU398 and HCT116 cells were grown and harvested as in Example 33. An aliquot of 90 μL of cells (4.4×10^4 cells/mL) was added to a well of a 96-well microtiter plate containing 5 μL of a 10% DMSO in RPMI-1640 media solution containing 10 nM to 100 μM of 5,7-dihydro-N-(3,5-dimethoxyphenyl)-2-(methylthio)furo[3,4-d]pyrimidin-4-amine (1 nM to 10 μM final) or related compounds. An aliquot of […] of cells was added to a well of a 96-well microtiter plate containing 5 μL of a 10% DMSO in RPMI-1640 media solution without compound as the control sample for maximal cell proliferation (LMax). The samples were mixed by agitation and then incubated at 37° C. for 48 h in a 5% CO2-95% humidity incubator. After incubation, the samples were removed from the incubator and 25 μL of CellTiter-Glo™ reagent (Promega) was added. The samples were mixed by agitation and incubated at room temperature for 10-15 min. Plates were then read using a luminescent plate reader (Model SPECTRAfluor Plus, Tecan) to give Ltest values.
(§5) Baseline for GI50 (dose for 50% inhibition of cell proliferation) of initial cell numbers was determined by adding an aliquot of 45 μL of cells or 45 μL of media, respectively, to wells of a 96-well microtiter plate containing 5 μL of a 10% DMSO in RPMI-1640 media solution. The samples were mixed by agitation and then incubated at 37° C. for 0.5 h in a 5% CO2-95% humidity incubator. After incubation, the samples were removed from the incubator and 25 μL of CellTiter-Glo™ reagent (Promega) was added. The samples were mixed by agitation and incubated at 37° C. for 10-15 min at room temperature in a 5% CO2-95% humidity incubator. Fluorescence was read as above, (LStart) defining luminescence for initial cell number used as baseline in GI50 determinations.
(§6) GI50 (dose for 50% inhibition of cell proliferation) is the concentration where [(LTest−LStart)/(LMax−LStart)]=0.5.

[2] = tested on: human colon carcinoma cell line HCT116; assay: Caspase cascade activation (Ac-DEVD-R110 fluorogenic substrate) in HCT116 cells; details: HCT-116, incubated 24 or 48 h (Table I), 0.016 to 10 μM final, read-out: Caspase Activation Potency EC50 HCT116
Description: as §1, §2, §3

T-47D cells = assay: Inhibition of cell proliferation (GI50, CellTiter-Glo) in T-47D cells; details: Homo sapiens, T47D, 48 h, read-out: GI50 in Cancer Cells T47D
Description: as §4, §5, §6

MX-1 cells = assay: Inhibition of cell proliferation (GI50, CellTiter-Glo) in MX-1 cells; details: Homo sapiens, MX1, 48 h, read-out: GI50 in Cancer Cells MX1
Description: as §4, §5, §6

[3] = tested on: breast cancer cell line SKBR3; assay: Caspase cascade activation (24 h assay) in SKBR3 cells; details: Homo sapiens, SK-BR-3, 24 h assay (Table II), read-out: Caspase Activation Potency EC50 (24 h) SKBR3
Description: [The procedure below names another cell line; the source lists this cell line under the same test.] Human breast cancer cell line T-47D, human hepatocellular carcinoma cell line SNU398 and human colon carcinoma cell line HCT116 were grown according to media component mixtures designated by American Type Culture Collection+10% FCS (Invitrogen Corporation), in a 5% CO2-95% humidity incubator at 37° C. T-47D and H1299 cells were maintained at a cell density between 50 and 80% confluency at a cell density of 0.1 to 0.6×10^6 cells/mL. Cells were harvested at 600×g and resuspended at 0.65×10^6 cells/mL into appropriate media+10% FCS. […] Using a fluorescent plate reader (Model SPECTRAfluor Plus, Tecan), an initial reading (T=0) was made approximately 1-2 min after addition of the substrate solution, employing excitation at 485 nm and emission at 530 nm, to determine the background fluorescence of the control sample. After the 3 h incubation, the samples were read for fluorescence as above (T=3 h).
as §2
as §3, with “Inc.). […]” for “Inc.).”

SNU398 cells = assay: Inhibition of cell proliferation (GI50, CellTiter-Glo) in SNU398 cells; details: Homo sapiens, SNU-398, 48 h, read-out: GI50 in Cancer Cells SNU398
Description: as §4, §5, §6

[4] = tested on: Human breast cancer cell line T-47D; assay: Caspase cascade activation (Ac-DEVD-R110 fluorogenic substrate) in T-47D cells; details: T47D
Description: as §1, §2, §3

[5] = tested on: human lung cancer cell line H1299; assay: Caspase cascade activation (24 h assay) in H1299 cells; details: NCI-H1299, 24 h assay (Table II), read-out: Caspase Activation Potency EC50 (24 h) H1299
Description: as §1, with “After incubation, the samples were removed from the incubator and 25 μL of a solution containing 14 μM of N-(Ac-DEVD)-N′-ethoxycarbonyl-R110 (SEQ ID No.:1) fluorogenic substrate (Cytovia, Inc.; WO99/18856), 20% sucrose (Sigma), 20 mM DTT (Sigma), 200 mM NaCl (Sigma), 40 mM Na PIPES buffer pH 7.2 (Sigma), and 500 µg/mL lysolecithin (Calbiochem) was added. The samples were mixed by agitation and incubated at room temperature.” left out
as §2
as §3, with “Inc.). […]” for “Inc.).”

[6] = tested on: multi-drug resistant (MDR) human sarcoma cell line MES-SA/ADR; assay: Inhibition of cell proliferation (GI50) in MES-SA/ADR cells; details: read-out: GI50 in Multi-Cancer Cells MES-SA/ADR
Description: [The procedure below names another cell line; the source lists this cell line under the same test.] as §4
(§7) Baseline for GI50 (dose for 50% inhibition of cell proliferation) of initial cell numbers was determined by adding an aliquot of 45 μL of cells or 45 μL of media, respectively, to wells of a 96-well microtiter plate containing 5 μL of a 10% DMSO in RPMI-1640 media solution. […]

[7] = tested on: human sarcoma cell line MES-SA; assay: Inhibition of cell proliferation (GI50) in MES-SA cells; details: read-out: GI50 in Multi-Cancer Cells MES-SA
Description: [The procedure below names another cell line; the source lists this cell line under the same test.] as §4, §7

[8] = tested on: multi-drug resistant (MDR) murine leukemia cell line P388ADR; assay: Inhibition of cell proliferation (GI50) in P388ADR cells; details: Mus musculus, P388/ADR, read-out: GI50 in Multi-Cancer Cells P388ADR
Description: [The procedure below names another organism; the source lists this organism under the same test.] as §4, §7

[9] = tested on: human breast cancer cell lines MDAMB435; assay: Inhibition of cell proliferation (GI50) in MDAMB435 cells; details: MDA-MB-435, read-out: GI50 in Multi-Cancer Cells MDAMB435
Description: [The procedure below names another cell line; the source lists this cell line under the same test.] as §4, §7

[10] = tested on: murine leukemia cell line P388; assay: Inhibition of cell proliferation (GI50) in P388 cells; details: Mus musculus, read-out: GI50 in Multi-Cancer Cells P388
Description: [The procedure below names another organism; the source lists this organism under the same test.] as §4, §7

[11] = SNU-398, 24 h assay (Table II), read-out: Caspase Activation Potency EC50 (24 h) SNU398
[12] = SNU-398, incubated 24 or 48 h (Table I), 0.016 to 10 μM final, read-out: Caspase Activation Potency EC50 SNU398
[13] = 24 h assay (Table II), read-out: Caspase Activation Potency EC50 (24 h) T47D
[14] = T-47D, incubated 24 or 48 h (Table I), 0.016 to 10 μM final, read-out: Caspase Activation Potency EC50 T-47D

Row | EC50 [1, 11] [µM] | EC50 [1, 12] [µM] | GI50 (HCT116 cells) [µM] | EC50 [2] [µM] | GI50 (T-47D cells) [µM] | EC50 [3] [µM] | GI50 (SNU398 cells) [µM] | EC50 [4, 13] [µM] | EC50 [4, 14] [µM] | EC50 [5] [µM] | GI50 [6] [µM] | GI50 [7] [µM] | GI50 [8] [µM] | GI50 [9] [µM] | GI50 [10] [µM] | Compound | GI50 (MX-1 cells) [µM]
1 | 0.035 |  |  |  | 0.046 |  |  | 0.032 | 0.031 | 0.043 | 0.026 | 0.026 | 0.021 | 0.004 | 0.014 | COc1ccc(N(C)c2nc(SC)nc3c2CCC3)cc1 [Example 23, 6,7-Dihydro-N-(4-methoxyphenyl)-N-methyl-2-(methylthio)-5H-cyclopenta[d]pyrimidin-4-amine] | 0.05
2 |  | > 10 | > 10 | > 10 | 5 |  | > 10 |  | 0.987 |  |  |  |  |  |  | COc1cc(Nc2ncnc3c2CCC3)cc(OC)c1 [Example 24, 6,7-Dihydro-N-(3,5-dimethoxyphenyl)-5H-cyclopenta[d]pyrimidin-4-amine] | 5
3 | > 10 | > 10 | > 10 | > 10 | 1 | 0.355 | > 10 | 0.244 | 0.26 | > 10 |  |  |  |  |  | COc1ccc(OC)c(Nc2ncnc3c2CCC3)c1 [Example 25, 6,7-Dihydro-N-(2,5-dimethoxyphenyl)-5H-cyclopenta[d]pyrimidin-4-amine] | 0.89
4 |  | > 10 | > 10 | > 10 | 0.5 |  | > 10 |  | 0.164 |  |  |  |  |  |  | COc1cc(Nc2nc([S+](C)[O-])nc3c2CCC3)cc(OC)c1 (centres unmarked) [Example 27, 6,7-Dihydro-N-(3,5-dimethoxyphenyl)-2-(methylsulfinyl)-5H-cyclopenta[d]pyrimidin-4-amine] | 0.6

Continued, molecule first:

Row | Compound | EC50 [1, 11] [µM] | EC50 [1, 12] [µM] | GI50 (HCT116 cells) [µM] | EC50 [2] [µM] | GI50 (T-47D cells) [µM] | EC50 [3] [µM] | GI50 (SNU398 cells) [µM] | EC50 [4, 13] [µM] | EC50 [4, 14] [µM] | EC50 [5] [µM] | GI50 [6] [µM] | GI50 [7] [µM] | GI50 [8] [µM] | GI50 [9] [µM] | GI50 [10] [µM] | GI50 (MX-1 cells) [µM]
5 | COc1cc(Nc2nc(SC)nc3c2COC3)cc(OC)c1 [Example 7, 5,7-Dihydro-N-(3,5-dimethoxyphenyl)-2-(methylthio)furo[3,4-d]pyrimidin-4-amine] | > 10 | 4.71 | 3 | 5.5 | 0.183 | 0.118 | 3.74 | 0.054 | 0.061 |  |  |  |  |  |  | 0.027
6 | COc1ccc(OC)c(Nc2nc(SC)nc3c2CCC3)c1 [Example 18, 6,7-Dihydro-N-(2,5-dimethoxyphenyl)-2-(methylthio)-5H-cyclopenta[d]pyrimidin-4-amine] | > 10 | 1.32 | > 10 | 0.286 | 0.021 |  | > 10 | 0.082 | 0.134 | 0.934 |  |  |  |  |  | 0.2
